# According to publication PMC13329992, “Catalytic Promiscuity Underpins Metabolic Resistance to Auxinic Herbicides in Echinochloa phyllopogon” (Journal of Agricultural and Food Chemistry, 2026):
# Target: T1, CYP81A24 (Echinochloa phyllopogon, UniProt R4WC97)
# T1 construct: expressed in E. coli C41(DE3) from pET28 with co-expressed Arabidopsis ATR2 reductase (pCDF, with HemA) and pGro7 chaperonin
# T1 sequence (R4WC97 1-515): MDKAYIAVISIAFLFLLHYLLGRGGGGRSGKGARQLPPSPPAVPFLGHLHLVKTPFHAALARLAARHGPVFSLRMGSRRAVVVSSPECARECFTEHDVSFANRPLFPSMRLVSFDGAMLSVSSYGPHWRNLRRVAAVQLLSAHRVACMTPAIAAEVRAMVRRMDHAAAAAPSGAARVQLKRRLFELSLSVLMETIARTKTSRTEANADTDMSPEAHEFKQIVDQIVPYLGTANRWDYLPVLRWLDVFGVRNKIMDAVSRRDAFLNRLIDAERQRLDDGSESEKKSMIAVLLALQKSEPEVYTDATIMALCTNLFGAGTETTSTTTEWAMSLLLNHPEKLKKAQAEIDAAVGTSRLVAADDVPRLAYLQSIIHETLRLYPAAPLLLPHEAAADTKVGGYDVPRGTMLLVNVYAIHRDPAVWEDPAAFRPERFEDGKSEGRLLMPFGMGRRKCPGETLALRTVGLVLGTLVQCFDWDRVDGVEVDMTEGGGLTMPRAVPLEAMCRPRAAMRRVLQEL
# Test: E. coli whole-cell metabolism, LC-MS/MS MRM m/z […] to […]
# Assay type: cell-based
# Conditions: 0.2 mM quinclorac, 24 h, 30 °C; co-expressed ATR2 reductase; putative hydroxylated product, no authentic standard
smiles,measurement,value
O=C(O)c1c(Cl)ccc2cc(Cl)cnc12 [quinclorac],"E. coli whole-cell metabolism, LC-MS/MS MRM m/z 258 to 177","identified in the culture solution of E. coli with CYP81A12, CYP81A21, and CYP81A24"
